Patent US9212171B2, “Ethynyl compounds” (Hoffmann-La Roche Inc., priority 2011, dated 2015)

Target: human mGlu5a receptor (Homo sapiens (Human), UniProt P41594)
Assay: Intracellular Ca2+ mobilization assay (mGlu5 PAM)
Assay type: cell-based
Details: for EC50: HEK-293 cells stably transfected with human mGlu5a, L-glutamate added at EC20 (typically around 80 μM); for Emax: maximal response in % of the maximal stimulatory effect obtained with saturating concentrations of L-glutamate, read-out: Eff. (%)
Method: A monoclonal HEK-293 cell line stably transfected with a cDNA encoding for the human mGlu5a receptor was generated; for the work with mGlu5 Positive Allosteric Modulators (PAMs), a cell line with low receptor expression levels and low constitutive receptor activity was selected to allow the differentiation of agonistic versus PAM activity. Cells were cultured according to standard protocols (Freshney, 2000) in Dulbecco's Modified Eagle Medium with high glucose supplemented with 1 mM glutamine, 10% (vol/vol) heat-inactivated bovine calf serum, Penicillin/Streptomycin, […] hygromycin and 15 μg/ml blasticidin (all cell culture reagents and antibiotics from Invitrogen, Basel, Switzerland).
About 24 hrs before an experiment, 5×10^4 cells/well were seeded in poly-D-lysine coated, black/clear-bottomed 96-well plates. The cells were loaded with 2.5 μM Fluo-4AM in loading buffer (1×HBSS, 20 mM HEPES) for 1 hr at 37° C. and washed five times with loading buffer. The cells were transferred into a Functional Drug Screening System 7000 (Hamamatsu, Paris, France), and 11 half logarithmic serial dilutions of test compound at 37° C. were added and the cells were incubated for 10-30 min. with on-line recording of fluorescence. Following this pre-incubation step, the agonist L-glutamate was added to the cells at a concentration corresponding to EC20 (typically around 80 μM) with on-line recording of fluorescence; in order to account for day-to-day variations in the responsiveness of cells, the EC20 of glutamate was determined immediately ahead of each experiment by recording of a full dose-response curve of glutamate.
Responses were measured as peak increase in fluorescence minus basal (i.e. fluorescence without addition of L-glutamate), normalized to the maximal stimulatory effect obtained with saturating concentrations of L-glutamate. Graphs were plotted with the % maximal stimulatory using XLfit, a curve fitting program that iteratively plots the data using Levenburg Marquardt algorithm. The single site competition analysis equation used was y=A+((B−A)/(1+((x/C)D))), where y is the % maximal stimulatory effect, A is the minimum y, B is the maximum y, C is the EC50, x is the log 10 of the concentration of the competing compound and D is the slope of the curve (the Hill Coefficient). From these curves the EC50 (concentration at which half maximal stimulation was achieved), the Hill coefficient as well as the maximal response in % of the maximal stimulatory effect obtained with saturating concentrations of L-glutamate were calculated.
A depression of the signal observed after addition of the EC20 concentration of L-glutamate was indicative of an inhibitory activity of the test compound.

Sequence of human mGlu5a receptor (P41594 other isoform, or with tags, fused parts or gaps): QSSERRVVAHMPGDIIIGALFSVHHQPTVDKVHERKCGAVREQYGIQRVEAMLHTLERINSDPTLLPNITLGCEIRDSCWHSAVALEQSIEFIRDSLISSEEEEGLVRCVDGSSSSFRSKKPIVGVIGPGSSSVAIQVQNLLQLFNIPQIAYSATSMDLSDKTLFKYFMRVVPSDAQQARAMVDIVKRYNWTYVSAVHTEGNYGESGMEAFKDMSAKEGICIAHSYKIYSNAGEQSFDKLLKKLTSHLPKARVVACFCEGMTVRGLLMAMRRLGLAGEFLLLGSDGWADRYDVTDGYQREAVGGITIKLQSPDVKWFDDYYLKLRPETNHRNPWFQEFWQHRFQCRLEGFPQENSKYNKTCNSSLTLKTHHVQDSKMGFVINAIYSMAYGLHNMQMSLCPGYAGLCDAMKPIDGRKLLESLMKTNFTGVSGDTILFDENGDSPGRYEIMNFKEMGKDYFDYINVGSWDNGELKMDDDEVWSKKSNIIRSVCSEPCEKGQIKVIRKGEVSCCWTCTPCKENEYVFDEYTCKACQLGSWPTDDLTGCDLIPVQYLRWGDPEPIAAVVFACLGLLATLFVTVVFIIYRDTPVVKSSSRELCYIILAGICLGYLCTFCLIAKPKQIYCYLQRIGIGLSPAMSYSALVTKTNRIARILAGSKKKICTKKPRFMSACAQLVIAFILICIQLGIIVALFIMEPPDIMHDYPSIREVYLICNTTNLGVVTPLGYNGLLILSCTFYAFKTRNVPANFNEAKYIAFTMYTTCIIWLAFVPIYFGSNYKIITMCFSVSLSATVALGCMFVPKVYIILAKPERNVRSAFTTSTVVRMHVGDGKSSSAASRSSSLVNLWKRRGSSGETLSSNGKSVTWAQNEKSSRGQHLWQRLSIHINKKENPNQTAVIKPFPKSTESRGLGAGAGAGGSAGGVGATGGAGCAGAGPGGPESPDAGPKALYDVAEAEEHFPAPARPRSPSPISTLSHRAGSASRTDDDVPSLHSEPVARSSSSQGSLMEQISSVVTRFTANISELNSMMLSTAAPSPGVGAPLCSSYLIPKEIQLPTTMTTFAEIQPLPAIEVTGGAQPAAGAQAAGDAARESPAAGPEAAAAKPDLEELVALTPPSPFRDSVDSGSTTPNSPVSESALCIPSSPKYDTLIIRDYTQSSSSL

| Structure (SMILES) | EC50 | Emax |
| --- | --- | --- |
| CN1C(=O)C(c2ccc(C#Cc3ccccc3)cn2)CC1(C)C (racemic) [Example 1, (RS)-1,5,5-Trimethyl-3-(5-(phenylethynyl)pyridin-2-yl)pyrrolidin-2-one] | 60 nM | 111% |
| CN1C(=O)C(c2ccc(C#Cc3cccnc3)cn2)CC1(C)C (racemic) [Example 2, (RS)-1,5,5-Trimethyl-3-(5-(pyridin-3-ylethynyl)pyridin-2-yl)pyrrolidin-2-one] | 981 nM | 107% |
| CN1C(=O)C(c2ccc(C#Cc3cccc(Cl)c3)cn2)CC1(C)C (racemic) [Example 3, (RS)-3-(5-((3-chlorophenyl)ethynyl)pyridin-2-yl)-1,5,5-trimethylpyrrolidin-2-one] | 38 nM | 81% |
| CN1C(=O)C(c2ccc(C#Cc3cccc(F)c3)cn2)CC1(C)C (racemic) [Example 4, (RS)-3-(5-((3-Fluorophenyl)ethynyl)pyridin-2-yl)-1,5,5-trimethylpyrrolidin-2-one] | 61 nM | 103% |
| CN1C(=O)C(C(=O)OCc2ccccc2)(c2ncc(C#Cc3ccccc3)cn2)CC1(C)C (racemic) [Example 5, (RS)-Benzyl 1,5,5-trimethyl-2-oxo-3-(5-(phenylethynyl)pyrimidin-2-yl)pyrrolidine-3-carboxylate] | 528 nM | 48% |
| CN1C(=O)C(c2ncc(C#Cc3ccccc3)cn2)CC1(C)C (racemic) [Example 6, (RS)-1,5,5-Trimethyl-3-(5-(phenylethynyl)pyrimidin-2-yl)pyrrolidin-2-one] | 130 nM | 90% |
| CN1C(=O)C(c2ncc(C#Cc3cccc(F)c3)cn2)CC1(C)C (racemic) [Example 7, (RS)-3-(5-((3-fluorophenyl)ethynyl)pyrimidin-2-yl)-1,5,5-trimethylpyrrolidin-2-one] | 137 nM | 85% |
| CN1C(=O)C(c2ncc(C#Cc3ccc(F)cc3)cn2)CC1(C)C (racemic) [Example 8, (RS)-3-(5-((4-Fluorophenyl)ethynyl)pyrimidin-2-yl)-1,5,5-trimethylpyrrolidin-2-one] | 390 nM | 105% |
| CN1C(=O)C(c2ccc(C#Cc3cccc(F)c3)nn2)CC1(C)C (racemic) [Example 9, (RS)-3-(6-((3-Fluorophenyl)ethynyl)pyridazin-3-yl)-1,5,5-trimethylpyrrolidin-2-one] | 34 nM | 88% |
| CN1C(=O)C(c2ccc(C#Cc3ccccc3)nn2)CC1(C)C (racemic) [Example 11, (RS)-1,5,5-trimethyl-3-(6-(phenylethynyl)pyridazin-3-yl)pyrrolidin-2-one] | 58 nM | 115% |
| CN1C(=O)C(c2ccc(C#Cc3ccccc3)cn2)CCC1(C)C (racemic) [Example 12, (RS)-1,6,6-Trimethyl-3-(5-(phenylethynyl)pyridin-2-yl)piperidin-2-one] | 113 nM | 103% |
| CN1C(=O)C(c2ccc(C#Cc3cccc(F)c3)cn2)CCC1(C)C (racemic) [Example 13, (RS)-3-(5-((3-Fluorophenyl)ethynyl)pyridin-2-yl)-1,6,6-trimethylpiperidin-2-one] | 98 nM | 90% |
| CN1C(=O)C(c2ccc(C#Cc3ccc(F)cc3)cn2)CCC1(C)C (racemic) [Example 14, (RS)-3-(5-((4-Fluorophenyl)ethynyl)pyridin-2-yl)-1,6,6-trimethylpiperidin-2-one] | 212 nM | 96% |
| CN1C(=O)C(c2ncc(C#Cc3ccccc3)cn2)CCC1(C)C (racemic) [Example 15, (RS)-1,6,6-Trimethyl-3-(5-(phenylethynyl)pyrimidin-2-yl)piperidin-2-one] | 179 nM | 91% |
| CN1C(=O)C(c2ncc(C#Cc3ccc(F)cc3)cn2)CCC1(C)C (racemic) [Example 16, (RS)-3-(5-((4-Fluorophenyl)ethynyl)pyrimidin-2-yl)-1,6,6-trimethylpiperidin-2-one] | 573 nM | 96% |
